Test system: HSSY-II complex spheroid growth, percent test/control
Assay: Anticancer human tumor HSSY-II cell line growth inhibition [Asc];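 also: spheroids exposed to drug for 7 days before reading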
Settings: for IC50: curve of first compound; for viability, T/C: stronger effect = lower value; active = viability on the fitted dose curve at most 10% of control; inactive = the rest
Method in brief: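 Tumor cells were grown as multicellular spheroids with stromal HUVEC and mesenchymal stem cells and treated singly or in combination. Concentrations fell in half-log steps from the clinical Cmax, or from 10 microM where none was known.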

Cc1nc(N2CCC3(CC2)COC(C)C3N)c(CO)nc1Sc1ccnc(N)c1Cl (configuration not stated) + CCN1C(C(=O)NC23CCC(C(=O)O)(CC2)CC3)C(c2cccc(Cl)c2F)C2(C(=O)Nc3cc(Cl)ccc32)C12CCCCC2
0.612 µM: IC50 (second compound 0.0949 µM)
inactive: viability, T/C (second compound 0.03 µM, first compound 0.00949 µM) 105% | viability, T/C (second compound 0.03 µM, first compound 0.03 µM) 97.6% | viability, T/C (second compound 0.03 µM, first compound 0.0949 µM) 100% | viability, T/C (second compound 0.03 µM, first compound 0.3 µM) 93.2% | viability, T/C (second compound 0.03 µM, first compound 0.949 µM) 88.8% | viability, T/C (second compound 0.03 µM, first compound 3 µM) 59.8% | viability, T/C (second compound 0.0949 µM, first compound 0.00949 µM) 64% | viability, T/C (second compound 0.0949 µM, first compound 0.03 µM) 59.3% | viability, T/C (second compound 0.0949 µM, first compound 0.0949 µM) 57.6% | viability, T/C (second compound 0.0949 µM, first compound 0.3 µM) 58.7% | viability, T/C (second compound 0.0949 µM, first compound 0.949 µM) 44.3% | viability, T/C (second compound 0.0949 µM, first compound 3 µM) 36.6% | viability, T/C (second compound 0.3 µM, first compound 0.00949 µM) 23.8% | viability, T/C (second compound 0.3 µM, first compound 0.03 µM) 22.2% | viability, T/C (second compound 0.3 µM, first compound 0.0949 µM) 23.4% | viability, T/C (second compound 0.3 µM, first compound 0.3 µM) 23.2% | viability, T/C (second compound 0.3 µM, first compound 0.949 µM) 14.6% | viability, T/C (second compound 0.3 µM, first compound 3 µM) 18.5%
> 3 µM: IC50 (second compound 0.03 µM)
active: viability, T/C (second compound 0.949 µM, first compound 0.00949 µM) 7.31% | viability, T/C (second compound 0.949 µM, first compound 0.03 µM) 6.01% | viability, T/C (second compound 0.949 µM, first compound 0.0949 µM) 4.66% | viability, T/C (second compound 0.949 µM, first compound 0.3 µM) 3.37% | viability, T/C (second compound 0.949 µM, first compound 0.949 µM) 2.01% | viability, T/C (second compound 0.949 µM, first compound 3 µM) 2.02% | viability, T/C (second compound 3 µM, first compound 0.00949 µM) 1.65% | viability, T/C (second compound 3 µM, first compound 0.03 µM) 1.25% | viability, T/C (second compound 3 µM, first compound 0.0949 µM) 0.81% | viability, T/C (second compound 3 µM, first compound 0.3 µM) 0.41% | viability, T/C (second compound 3 µM, first compound 0.949 µM) 0.35% | viability, T/C (second compound 3 µM, first compound 3 µM) 0.42%
< 0.00949 µM: IC50 (second compound 0.3 µM) | IC50 (second compound 0.949 µM) | IC50 (second compound 3 µM)

C#Cc1c(F)ccc2cc(O)cc(-c3ncc4c(N5CC6CCC(C5)N6)nc(OCC56CCCN5CC(F)C6)nc4c3F)c12 (configuration not stated) + CNC(C)C(=O)NC1CN(S(=O)(=O)c2cccc(S(=O)(=O)N3CCC4CCC(C(=O)NC(c5ccccc5)c5ccccc5)N4C(=O)C(NC(=O)C(C)NC)C3)c2)CCC2CCC(C(=O)NC(c3ccccc3)c3ccccc3)N2C1=O
> 10 µM: IC50 (second compound 0.00316 µM) | IC50 (second compound 0.1 µM)
8.98 µM: IC50 (second compound 0.0316 µM)
7.49 µM: IC50 (second compound 1 µM)
6.97 µM: IC50 (second compound 0.01 µM)
9.6 µM: IC50 (second compound 0.316 µM)
inactive: viability, T/C (second compound 0.00316 µM, first compound 0.0316 µM) 97.9% | viability, T/C (second compound 0.00316 µM, first compound 0.1 µM) 92.2% | viability, T/C (second compound 0.00316 µM, first compound 0.316 µM) 92.2% | viability, T/C (second compound 0.00316 µM, first compound 1 µM) 109% | viability, T/C (second compound 0.00316 µM, first compound 3.16 µM) 96.7% | viability, T/C (second compound 0.00316 µM, first compound 10 µM) 62.2% | viability, T/C (second compound 0.01 µM, first compound 0.0316 µM) 100% | viability, T/C (second compound 0.01 µM, first compound 0.1 µM) 88% | viability, T/C (second compound 0.01 µM, first compound 0.316 µM) 94% | viability, T/C (second compound 0.01 µM, first compound 1 µM) 98.1% | viability, T/C (second compound 0.01 µM, first compound 3.16 µM) 88.8% | viability, T/C (second compound 0.01 µM, first compound 10 µM) 32% | viability, T/C (second compound 0.0316 µM, first compound 0.0316 µM) 100% | viability, T/C (second compound 0.0316 µM, first compound 0.1 µM) 96.3% | viability, T/C (second compound 0.0316 µM, first compound 0.316 µM) 95.2% | viability, T/C (second compound 0.0316 µM, first compound 1 µM) 94.3% | viability, T/C (second compound 0.0316 µM, first compound 3.16 µM) 94.2% | viability, T/C (second compound 0.0316 µM, first compound 10 µM) 45.4% | viability, T/C (second compound 0.1 µM, first compound 0.0316 µM) 100% | viability, T/C (second compound 0.1 µM, first compound 0.1 µM) 91.7% | viability, T/C (second compound 0.1 µM, first compound 0.316 µM) 93.6% | viability, T/C (second compound 0.1 µM, first compound 1 µM) 88.5% | viability, T/C (second compound 0.1 µM, first compound 3.16 µM) 85.1% | viability, T/C (second compound 0.1 µM, first compound 10 µM) 63% | viability, T/C (second compound 0.316 µM, first compound 0.0316 µM) 102% | viability, T/C (second compound 0.316 µM, first compound 0.1 µM) 93.9% | viability, T/C (second compound 0.316 µM, first compound 0.316 µM) 88.5% | viability, T/C (second compound 0.316 µM, first compound 1 µM) 91.2% | viability, T/C (second compound 0.316 µM, first compound 3.16 µM) 84.9% | viability, T/C (second compound 0.316 µM, first compound 10 µM) 48.1% | viability, T/C (second compound 1 µM, first compound 0.0316 µM) 91.9% | viability, T/C (second compound 1 µM, first compound 0.1 µM) 90.8% | viability, T/C (second compound 1 µM, first compound 0.316 µM) 96.2% | viability, T/C (second compound 1 µM, first compound 1 µM) 86.1% | viability, T/C (second compound 1 µM, first compound 3.16 µM) 86.6% | viability, T/C (second compound 1 µM, first compound 10 µM) 37.5%
